In data set [1] the test system is cultured human mast cells (CHMC). Briefly: CHMC low cell density ionomycin activation: tryptase assay. It is filed as cell-based.
For data set [2], the system named is bone marrow derived mast cells (BMMC). Briefly: BMMC high cell density IgE activation: hexosaminidase. It is filed as cell-based, mouse.
The test system of data set [3] is Primary T-cells. Briefly: Primary T-cell cytokine production (αCD3/αCD28): IL-2. It is filed as cell-based, human. The settings on record: read-out: 1° T-Cell IL2 IC50. A digest of the protocol: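 Healthy-donor PBMC or rIL-2-expanded T cells, monocyte-depleted by adherence, […] in Yssel's medium with 1% human AB serum; compound preincubation 30 min at 37° C. Stimulated 18 hr on plate-bound 5 μg/ml αCD3 + 10 μg/ml αCD28; supernatant IL-2 by ELISA (450 nm, standard curve) or Luminex; IC50 versus solvent.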

Data set [4] relates to Primary T-cells. Briefly: Primary T-cell cytokine production (αCD3/αCD28): GMSCF. Format: cell-based, human. The settings on record: read-out: 1° T-Cell GMSCF IC50. The procedure: (§1) 2E8-4E8 PBMC or proliferating T cells grown in rIL-2 from healthy human donors were suspended in PBS were spun down (1500 rpm, 8-10 minutes) and resuspended in 100 ml RPMI Complete media (1% Pen-Strep, 1% L-Glutamine, 10 mM HEPES). The cells were plated in T175 flasks (37° C., 5% CO2) and monocytes were allowed to adhere for 2-3 hours. After monocyte attachment, non-adherent cells were harvested, counted by hemocytometer, washed several times with PBS then resuspended in Yssels Complete Media (Modified IMDM Media with 1% Human AB Serum, 1% Pen-Strep, 1% L-Glutamine, 10 mM HEPES) at […]. 90 uL of the cell dilution were then added to compounds diluted to 2× in Yssel's media and incubated for 30 minutes at 37° C. (5% CO2). After this preincubation step the compound/cell mixture was transferred to stimulation plates, as described below.
(§2) Stimulation plates were prepared by coating 96 well plates with 5 μg/ml αCD3 (BD PharMingen, Catalog #555336)+10 μg/ml αCD28 (Beckman Coulter, Catalog #IM1376) in PBS (no Ca^2+/Mg^2+) at 37° C. (5% CO2) for at 3-5 hours. After incubation with the stimulation antibodies, the cocktail was removed and the plates washed 3 times with PBS prior to addition of the primary T cell/compound mixture.
(§3) The compound/cell mixture was transferred to the stimulation plates and incubated for 18 hr at 37° C. (5% CO2). After the cell stimulation, ˜150 μl supernatant were transferred from each well into 96-well filter plates (Coming PVDF Filter Plates) spun down (2000 rpm, 2-3 minutes) and either used immediately for ELISA or LUMINEX measurements or frozen down at −80° C. for future use.
(§4) Luminex immunoassay multiplexing for TNF, IL-2, GMSCF, IL-4 and IFNg was performed essentially as described by the manufacturer (Upstate Biotechnology). Essentially 50 uL of sample was diluted into 50 uL assay diluent and 50 uL incubation buffer, then incubated with 100 uL of the diluted detection antibody for 1 hr at RT in the dark. The filter plate was washed 2× in Wash Buffer, then incubated with 100 uL of the diluted secondary reagent (SAV-RPE) for 30 min at RT in the dark. Finally the plates were washed 3 times and bead identification and RPE fluorescent measured by the Luminex instrument.
(§5) Varied concentrations of compound were compared to solvent only to determine the inhibition of T-cell activation IC50 of each compound.

Data set [5] relates to Primary T-cells. Briefly: Primary T-cell cytokine production (αCD3/αCD28): IFNg. Format: cell-based, human. To be noted: read-out: 1° T-Cell IFNg IC50. The procedure: as §1, §2, §3, §4, §5
The test system of data set [6] is Primary T-cells. Briefly: Primary T-cell cytokine production (αCD3/αCD28): IL-4. To be noted: read-out: 1° T-Cell IL4 IC50. It is filed as cell-based, human. The procedure: as §1, §2, §3, §4, §5
The nature of data set [7]: Mouse Reverse Passive Arthus reaction (RPA reaction). Format: in vivo, C57BL/6 mice. To be noted: oral. The gist of the method:
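C57BL/6 mice dosed with compound before challenge, pretreatment time set by each compound's PK; rabbit anti-OVA IgG (50 μg/mouse) given intradermally, then ovalbumin 20 mg/kg i.v. with 1% Evans blue. Dorsal skin edema and hemorrhage read by dye extravasation at 4 h; purified polyclonal rabbit IgG as control.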

Setting [8] is: low cell density, read-out: CHMC Ionomycin Tryptase.
Setting [9] is: high cell density, read-out: BMMC anti-IgE Hexos.
[10] abbreviates: 100 mg/kg, pretreatment time 0.5 hrs.
Where [11] appears, read: 100 mg/kg, pretreatment time 0.5 hrs + 4 hours.
Setting [12] is: 100 mg/kg, pretreatment time 1 hrs.
Setting [13] is: 100 mg/kg, pretreatment time 2 hrs.
Where [14] appears, read: 100 mg/kg, pretreatment time 2 hrs + 4 hours.
Setting [15] is: 50 mg/kg, pretreatment time 1 hrs.
Where [16] appears, read: 200 mg/kg, 60 minutes prior to challenge.
Setting [17] is: 200 mg/kg, pretreatment time 1 hrs.
Setting [18] is: Low Density CHMC, ionomycin activation, tryptase release, read-out: CHMC Ionomycin Tryptase IC50.
The mark [19] stands for this setting: High Density, read-out: BMMC anti-IgE hexos.
Where [20] appears, read: 100 mg/kg, pretreatment time 1 hrs + 4 hours.

Molecules are shown by their SMILES. Several values for one entry are separate records, joined by “and”; a condition that tells them apart may be missing. Identical values can stand only once. Like-named read-outs stand apart in the source and are kept apart here.

As for `CC1(C)Oc2ccc(Nc3nc(Nc4cc(Cl)cc(Cl)c4)ncc3F)cc2NC1=O` [Compound R927064], the IC50 in data set [1] (setting [8]) was 7240 nM; in data set [2] (setting [9]), 5 nM; in data set [3] it was > 10000 nM; in data set [4] it was > 10000 nM; in data set [5], > 10000 nM.
Turning to `CNC(=O)COc1cccc(Nc2ncc(F)c(Nc3ccc4c(n3)NC(=O)CO4)n2)c1` [Compound R921304], the IC50 turned out to be 2770 nM in data set [3], 1570 nM in data set [4], 366 nM in data set [6] and 2890 nM in data set [5].
`CC1(C)Oc2ccc(Nc3nc(Nc4ccc5cn[nH]c5c4)ncc3F)cc2NC1=O` [Compound R940363]: the IC50 in data set [1] (setting [8]) is > 10000 nM. In addition, the “% inhibition to vehicle control Edema Size ± SEM” value in data set [7] (setting [10]) was −16.4 ± 10.9%; in data set [7] (setting [12]), 67.6 ± 12.1% and 61 ± 8%; in data set [7] (setting [13]), 52.3 ± 22.7%. Also, the “Plasma Concentration ± SEM (ng/ml) Exposure = Pretreatment Time + 4 hours” value (shortened to “Plasma Concentration ± SEM”) in data set [7] (setting [11]) is 32 ± 10 ng/mL; in data set [7] (setting [14]), 37 ± 18 ng/mL.
With `Nc1cccc(Nc2ncc(F)c(Nc3cccc(N)c3)n2)c1` [Compound R921302], the “inhibition of edema formation” value was found to be 49.9% in data set [7] (50 mg/kg, 60 minutes prior to Ab/Ag challenge); 93.2% in data set [7] (100 mg/kg, 60 minutes prior to Ab/Ag challenge); 99.1% in data set [7] (setting [16]). Besides, the “% inhibition to vehicle control Edema Size ± SEM” value in data set [7] (setting [15]) was 50.0 ± 6.4% and 49.9%; in data set [7] (setting [10]) it was 89.44 ± 4.8%; in data set [7] (setting [12]), 82.1 ± 10.9% and 92.3 ± 4.2% and 93.2%; in data set [7] (setting [17]) it was 99.1 ± 0.9% and 99.1%. In data set [7] (100 mg/kg, 30 minutes post-challenge), the “inhibition of edema (therapeutic)” value is reported as 77.5%. For the same compound, the IC50 in data set [3] came to 5180 nM; in data set [4], 3210 nM; in data set [6] it was 245 nM; in data set [5] it was 3900 nM.
Take `COc1ccc(Nc2ncc(F)c(Nc3ccc(OC)c(OC)c3)n2)cc1OC` [Compound R926110]: the IC50 was > 10000 nM in data set [1] (setting [18]) and 1000 nM in data set [2] (setting [19]).
Turning to `CNC(=O)COc1cccc(Nc2ncc(F)c(Nc3ccc4c(c3)NCCO4)n2)c1` [Compound R921219], in data set [3], the IC50 stood at 546 nM.
On to `Fc1cnc(Nc2ccc3c(c2)OCCO3)nc1Nc1ccc2c(c1)OCCO2` [Compound R926109], for which the IC50 in data set [1] (setting [18]) came out at 5500 nM; in data set [2] (setting [19]), 600 nM.
For `COc1cc(Nc2ncc(F)c(Nc3ccc4c(c3)NC(=O)C(C)(C)O4)n2)cc(OC)c1` [Compound R927050], the IC50 in data set [1] (setting [8]) came to 3290 nM; in data set [2] (setting [9]) it was 103 nM; in data set [3], 928 nM; in data set [4], 1120 nM; in data set [6], 275 nM; in data set [5], 916 nM. The “% inhibition to vehicle control Edema Size ± SEM” value in data set [7] (setting [10]) was −0.3 ± 6.6%; in data set [7] (setting [12]) it was 14.9 ± 20.5% and 7 ± 19%; in data set [7] (setting [13]), 64.0 ± 8.9%. Besides, the “Plasma Concentration ± SEM” value is 619 ± 130 ng/mL in data set [7] (setting [11]); 837 ± 104 ng/mL and 1018 ± 189 ng/mL in data set [7] (setting [20]); 557 ± 78 ng/mL in data set [7] (setting [14]).
As to `CNC(=O)COc1cccc(Nc2ncc(F)c(Nc3cccc(O)c3)n2)c1` [Compound R926508], in data set [3], the IC50 was 917 nM.
Turning to `Oc1cccc(Nc2ncc(F)c(Nc3cccc(O)c3)n2)c1` [Compound R921218], the IC50 came out at 133 nM in data set [2] (setting [19]) and 3240 nM in data set [3].
Consider `CNC(=O)COc1cccc(Nc2ncc(F)c(Nc3ccc4c(c3)NC(=O)C(F)(F)O4)n2)c1` [Compound R921303], for which the “dose-dependent inhibition of edema formation” value in data set [7] (50 mg/kg) is listed as 65.4%; in data set [7] (100 mg/kg) it was 81.2%; in data set [7] (200 mg/kg), 100%. In addition, the “% inhibition to vehicle control Edema Size ± SEM” value in data set [7] (setting [15]) was 64.1 ± 13.3% and 65.4%; in data set [7] (setting [12]), 80.5 ± 9.8% and 81.2%; in data set [7] (200 mg/kg, pretreatment time 0.5 hrs) it was 100 ± 0%; in data set [7] (setting [17]) it was 100 ± 0% and 100%; in data set [7] (200 mg/kg, pretreatment time 2 hrs) it was 93.3 ± 4.4%. Further, the “inhibition of edema formation” value in data set [7] (setting [16]) was 100%; in data set [7] (200 mg/kg, pretreatment time 30 minutes) it was 100%; in data set [7] (200 mg/kg, pretreatment time 120 minutes) it was 93.6%. For the same compound, the “Plasma Concentration ± SEM” value in data set [7] (200 mg/kg, pretreatment time 0.5 hrs + 4 hours) worked out at 3703 ± 785 ng/mL; in data set [7] (200 mg/kg, pretreatment time 2 hrs + 4 hours) it was 2678 ± 496 ng/mL. In addition, the IC50 is 1020 nM in data set [3], 1180 nM in data set [4], 366 nM in data set [6] and 1280 nM in data set [5].
Take `OCCCn1ncc2cc(Nc3ncc(F)c(Nc4ccc(Cl)c(Cl)c4)n3)ccc21` [Compound R935391]: the values for the IC50 in data set [1] (setting [8]) and in data set [2] (setting [9]) were > 10000 nM and 250 nM, respectively.
As for `CNC(=O)COc1cccc(Nc2ncc(F)c(Nc3ccc4c(n3)NC(=O)C(C)(C)O4)n2)c1` [Compound R940347], the inhibition of edema in data set [7] (100 mg/kg, 2 hours prior to challenge) stood at 89%. In addition, the “% inhibition to vehicle control Edema Size ± SEM” value in data set [7] (setting [10]) was 36.7 ± 22.4%; in data set [7] (setting [12]), 48.2 ± 5.7% and 48%; in data set [7] (setting [13]), 88.9 ± 9.1% and 89%. For the same compound, the IC50 in data set [3] is 1890 nM; in data set [4] it was 1610 nM; in data set [6], 212 nM; in data set [5], 1670 nM.
`CNC(=O)COc1cccc(Nc2ncc(F)c(Nc3ccc(OC(F)(F)F)c(Cl)c3)n2)c1` [Compound R920410]: in data set [7] (setting [12]), the “% inhibition to vehicle control Edema Size ± SEM” value is 42.6 ± 15.1%. The IC50 in data set [3] was found to be 3360 nM; in data set [4], 3200 nM; in data set [6], 546 nM; in data set [5], 4310 nM.
`COc1ccc(Nc2ncc(F)c(Nc3cccc(O)c3)n2)cc1OC` [Compound R926113]: in data set [2] (setting [19]), the IC50 amounted to 650 nM.
In the case of `CC1(C)Oc2ccc(Nc3ncc(F)c(Nc4ccc5c(c4)NC(=O)C(C)(C)O5)n3)cc2NC1=O` [Compound R940350], the “% inhibition to vehicle control Edema Size ± SEM” value in data set [7] (setting [10]) was −15.6 ± 27.2%; in data set [7] (setting [13]) it was 38.9 ± 24.3%. The results for the “Plasma Concentration ± SEM” value in data set [7] (setting [11]), in data set [7] (setting [20]) and in data set [7] (setting [14]) were 176 ± 58 ng/mL, 129 ± 55 ng/mL and 96 ± 28 ng/mL, respectively. The IC50 in data set [3] was 2990 nM; in data set [4], 2450 nM; in data set [6] it was 501 nM; in data set [5], 2470 nM.

(Values after US8158621B2, “Methods of treating or preventing autoimmune diseases with 2,4-pyrimidinediamine compounds” (Rigel Pharmaceuticals, Inc., priority 2002, dated 2012).)
